Laboratory results: the NIST ThermoML archive (doi:10.1021/je060271a)
± gives the expanded uncertainty stated by the source.

Settings: 323.14 K, Liquid, Vibrating tube method

CCCCCCC(=O)OCC(COC(=O)CCCCCC)(COC(=O)CCCCCC)COC(=O)CCCCCC [pentaerythritol tetraheptanoate]
Settings | mass density [kg/m3]
141.6 kPa | 955.8 ± 1.2
142.1 kPa | 955.7 ± 1.2
142.7 kPa | 955.7 ± 1.2
143.5 kPa | 955.7 ± 1.2
146.5 kPa | 955.7 ± 1.2
148.2 kPa | 955.7 ± 1.2
149.1 kPa | 955.7 ± 1.2
149.8 kPa | 955.7 ± 1.2
150.7 kPa | 955.7 ± 1.2
151.7 kPa | 955.7 ± 1.2
160.6 kPa | 955.8 ± 1.2
191.9 kPa | 955.7 ± 1.2
198.5 kPa | 955.7 ± 1.2
199.7 kPa | 955.7 ± 1.2
201.6 kPa | 955.8 ± 1.2
203.3 kPa | 955.6 ± 1.2
206.3 kPa | 955.6 ± 1.2
208.7 kPa | 955.6 ± 1.2
211.5 kPa | 955.7 ± 1.2
213.8 kPa | 955.8 ± 1.2
216.2 kPa | 955.6 ± 1.2
219 kPa | 955.8 ± 1.2
222.1 kPa | 955.7 ± 1.2
224.9 kPa | 955.7 ± 1.2
228.5 kPa | 955.7 ± 1.2
231.8 kPa | 955.6 ± 1.2
234.6 kPa | 955.7 ± 1.2
237.8 kPa | 955.7 ± 1.2
248.7 kPa | 955.8 ± 1.2
252.3 kPa | 955.7 ± 1.2
256.9 kPa | 955.6 ± 1.2
260.9 kPa | 955.8 ± 1.2
269.9 kPa | 955.8 ± 1.2
274.2 kPa | 955.7 ± 1.2
279.5 kPa | 955.8 ± 1.2
284.3 kPa | 955.8 ± 1.2
289.2 kPa | 955.7 ± 1.2
294.6 kPa | 955.8 ± 1.2
300.8 kPa | 955.7 ± 1.2
306.2 kPa | 955.9 ± 1.2
313.2 kPa | 955.9 ± 1.2
325.7 kPa | 955.8 ± 1.2
332.1 kPa | 955.9 ± 1.2
355.4 kPa | 955.9 ± 1.2
382.3 kPa | 955.9 ± 1.2
391.6 kPa | 956 ± 1.2
402.9 kPa | 955.9 ± 1.2
412.9 kPa | 955.8 ± 1.2
423.9 kPa | 955.8 ± 1.2
437.3 kPa | 955.8 ± 1.2
478.1 kPa | 956 ± 1.2
585.3 kPa | 955.9 ± 1.2
606 kPa | 955.9 ± 1.2
632.9 kPa | 956 ± 1.2
657.4 kPa | 955.9 ± 1.2
683.2 kPa | 956 ± 1.2
747.4 kPa | 956.1 ± 1.2
859.8 kPa | 956 ± 1.2
901.9 kPa | 956.1 ± 1.2
946 kPa | 956.2 ± 1.2
1003.2 kPa | 956.3 ± 1.2
1051.3 kPa | 956.3 ± 1.2
1084.8 kPa | 956.4 ± 1.2
1163.8 kPa | 956.3 ± 1.2
1174 kPa | 956.4 ± 1.2
1215.6 kPa | 956.4 ± 1.2
1248.5 kPa | 956.5 ± 1.2
1269 kPa | 956.4 ± 1.2
1336.1 kPa | 956.5 ± 1.2
1342 kPa | 956.5 ± 1.2
1347.9 kPa | 956.5 ± 1.2
1355 kPa | 956.5 ± 1.2
1360.7 kPa | 956.6 ± 1.2
1366.8 kPa | 956.5 ± 1.2
1374.4 kPa | 956.5 ± 1.2
1380.5 kPa | 956.5 ± 1.2
1386.8 kPa | 956.6 ± 1.2
1393.9 kPa | 956.6 ± 1.2
1400.3 kPa | 956.5 ± 1.2
1406.6 kPa | 956.7 ± 1.2
1414.7 kPa | 956.6 ± 1.2
1515.9 kPa | 956.7 ± 1.2
1530.9 kPa | 956.7 ± 1.2
1537.8 kPa | 956.7 ± 1.2
1547 kPa | 956.7 ± 1.2
1554.5 kPa | 956.7 ± 1.2
1561.9 kPa | 956.7 ± 1.2
1571 kPa | 956.8 ± 1.2
1578.6 kPa | 956.7 ± 1.2
1586.4 kPa | 956.6 ± 1.2
1596.1 kPa | 956.6 ± 1.2
1604 kPa | 956.7 ± 1.2
1612.1 kPa | 956.7 ± 1.2
1637.6 kPa | 956.7 ± 1.2
1645.8 kPa | 956.8 ± 1.2
1655.5 kPa | 956.8 ± 1.2
1664.2 kPa | 956.7 ± 1.2
1672.2 kPa | 956.7 ± 1.2
1680.7 kPa | 956.8 ± 1.2
1690.9 kPa | 956.8 ± 1.2
1699.8 kPa | 956.8 ± 1.2
1708.3 kPa | 956.8 ± 1.2
1756.9 kPa | 956.8 ± 1.2
1766.2 kPa | 956.7 ± 1.2
1784.8 kPa | 956.7 ± 1.2
1795.8 kPa | 956.8 ± 1.2
1805 kPa | 956.9 ± 1.2
1816.8 kPa | 956.8 ± 1.2
1826.5 kPa | 956.8 ± 1.2
1836.5 kPa | 956.8 ± 1.2
1847 kPa | 956.8 ± 1.2
1857.2 kPa | 957 ± 1.2
